Measurements reported in patent US20200316207A1, “POLYMERIC BILE ACID NANOPARTICLES AS ANTI-INFLAMMATORY AGENTS” (Yale University, priority 2015, published 2020).

Assays:
[1] = Loading of dye/agents in NPs; format: physicochemical
Description: Polymer Synthesis and Nanoparticle (NP) formulation. […] Chloroform was utilized as the mobile phase with a flow rate of 1 mL/min and both the columns and RI detector were maintained at 40° C. MW characteristics were determined relative to a calibration curve generated from narrow polydispersity polystyrene standards (Aldrich Chemical). […] Polymers or the mixture (100 mg) was dissolved in 2 mL chloroform containing DIR (1 mg), coumarin 6 (10 mg), RAPA (10 mg) or iron oxide (1 mg). Phosphate-buffered saline (PBS, 100 μL) or the PBS containing INS (10 μg) was added dropwise to the chloroform polymer solution while vortexing and homogenized using an IKA T25 Digital Ultra-Turrax (IKA). This dispersant phase was then added dropwise to a continuous phase of 5% PVA and homogenized. The mixture was then added dropwise to 200 mL of 0.2% PVA and left stirring for 2 h to evaporate the solvent. NPs were collected by centrifugation at 12,000 rpm for 20 min at 4° C. and then washed 3 times with deionized water. The particles were lyophilized and stored at −20° C. The hydrodynamic diameter and surface charge of NPs were measured by a Malvern Zetasizer. A dispersion of NPs was filtrated through a 0.45 μm Millipore filter into cuvettes prior to the measurements. […] The morphology of the NPs was observed by Hitachi S-4800 High Resolution scanning electron microscopy (SEM, Norcross). A dispersion of NPs in ethanol (2 μL) was placed on the wafer substrate and dried at room temperature. The sample was mounted on the aluminum sample holder and then gold sputtered. […] NPs were dispersed in the media (citrate buffer solution, pH 2.0) at 37° C. in the presence of pepsin (10 mg/mL). At each time point, NPs were centrifuged, and supernatant was collected to measure the amount of DIR released from the particles using a plate reader (λex 750 nm, λem 790 nm, SpectraMax M5, Molecular Devices). Insulin release was quantified by the BCA assay.

[2] = cited from earlier work
[3] = Biodistribution and clearance of dye-loaded NPs after oral gavage; format: in vivo, mice; conditions: pancreas
Description: B6, NOD, or Nude mice were fasted for 4 h and treated with DIR- or coumarin 6-encapsulating NPs by oral gavage (50, 100, or 500 mg/kg, 250 μL). Free DIR or coumarin 6 (solubilized with 1% Tween 20) served as controls. […] Fluorescence data was fit to the one component exponential decay model: Y=Yf+(Yo−e^−kt).
Biodistribution in animals was conducted using fluorescent dye loaded pBA NPs. Animals were first fasted for 4 h prior to the experiment then orally gavaged with the NP formulations in saline followed by resumption of normal food and water. At 4 h post gavage, animals were euthanized, and organs were harvested to be fluorescently imaged. Quantitative fluorescence was conducted with a multispectral imaging platform (Bruker multispectral MS FX PRO imaging system).

[4] = test system: fibroblasts from patients with either sporadic or familial Alzheimer's disease; conditions: cited from earlier work
rat microglia = conditions: cited from earlier work
[5] = test system: mouse pancreatic β cell line (MIN6); assay: Insulin production from pancreatic β cells (MIN6) by TGR5 activation; format: cell-based; conditions: 40 μg/mL, 25 mM glucose, compared with PLGA particles
Description: Concentration of insulin was measured using an Ultrasensitive Insulin ELISA kit (ALPCO). […] The pAkt production from CHO cells incubated with fresh or denatured insulin was compared to calculate percent bioactivity.
Concentration of insulin was measured using an Ultrasensitive Insulin ELISA kit (ALPCO).

insulin
Loading of agent [1]: 0.02 μg per mg of particles
loading of INS in pUDCA NPs [1]: approximately 20 ng/mg of NP

CCN(CC)c1ccc2cc(-c3nc4ccccc4s3)c(=O)oc2c1 [coumarin 6]
Log P [2]: 1.8
Loading of agent [1]: 84.3 μg per mg of particles

CCCCCCCCCCCCCCCCCCN1C(=CC=CC=CC=CC2=[N+](CCCCCCCCCCCCCCCCCC)c3ccccc3C2(C)C)C(C)(C)c2ccccc21.[I-] [DIR, 1,1′-dioctadecyl-3,3,3′,3′-tetramethylindotricarbocyanine iodide]
Loading of agent [1]: 6.7 μg per mg of particles
ΔY (Final-Initial) [3]: 1.42 % Initial Dose/cm^3
k (clearance rate) ([3]; one phase decay fit): ~0.01 h⁻¹

CC(CCC(=O)O)C1CC[C@H]2[C@@H]3[C@@H](O)C[C@@H]4C[C@H](O)CC[C@]4(C)[C@H]3CC[C@]12C (stereo partly shown) [UDCA, urso-deoxycholic acid]
effect on mitochondrial function and Drp1 [4]: improve mitochondrial function and redistributes Drp1
effect on IL-1β, nitric oxide, TNF-α (rat microglia): reduce IL-1β and nitric oxide, and downregulate TNF-α
insulin secretion from pancreatic β cells [5]: able to induce insulin secretion
